# Measurements: patent US20260125730A1, “A NEW INDUCER FOR METHANOL-FREE PICHIA PASTORIS EXPRESSION SYSTEM” (priority 2022, published 2026)
# System: AOX1 promoter
# Experiment: Induction of the AOX1 promoter in recombinant P. pastoris cells carrying the azurin gene; western blot of culture broth with anti-azurin antibody
# Assay type: cell-based, Pichia pastoris
# Excerpt: FIG. 1B. Relative expression levels of azurin protein in culture broths
# Recombinant yeast cells were obtained by performing steps A, B and C in the study in which the recombinant DNA obtained by Inserting the azurin gene of Pseudomonas aeruginosa into pPICZαA was integrated into the genome of P. pastoris X33 strain (https://pubmed.ncbi.nlm.nih.gov/33346686/).
# In this Invention, recombinant Pichia pastoris cells which carry the “azurin protein” gene (as a reference gene) from Pseudomonas aeruginosa in their genomes and can perform the extracellular production of this protein were used.
# Said protein gene is located in the downstream of the AOX1 promoter in the genome of P. pastoris cells. If the AOX promoter is induced, expression of this gene inserted into the genome can be achieved. […] Methanol or farnesol was added to the culture medium In predetermined amounts every 24 hours.
SMILES,"protein expression level among the farnesol groups (240 farnesol group compared with 120 and 480 μL/L, 72 hours, FIG. 1B)","protein expression level relative to the 0.5% (v/v) methanol-induced group (240 farnesol group, P<0.05, FIG. 1B)","extracellular protein (azurin) production on induction of the promoter (farnesol 120 μL/L, 240 μL/L and 480 μL/L added every 24 hours, sorbitol as carbon source, 30° C., 280 rpm, 72 hours, FIG. 1A)","protein (azurin) production on induction of the promoter (methanol 0.5% v/v (control inducer) added every 24 hours, sorbitol as carbon source, 30° C., 280 rpm, 72 hours, FIG. 1A)"
CC(C)=CCCC(C)=CCCC(C)=CCO [farnesol],highest protein expression level,higher than that of the 0.5% (v/v) methanol-induced group,protein production also occurred,–
CO [methanol],–,–,–,protein production
